Reference: ChEMBL document CHEMBL3994622, “Design and synthesis of new RAF kinase-inhibiting antiproliferative quinoline derivatives. Part 2: Diarylurea derivatives” (Eur J Med Chem, 2017)

Key:
CCRF-CEM = experiment: Growth inhibition of human CCRF-CEM cells incubated for 48 hrs by sulforhodamine B assay; assay type: functional; conditions: for CC50: read-out: LC50 (the source's name)
HL-60(TB) = experiment: Growth inhibition of human HL-60(TB) cells incubated for 48 hrs by sulforhodamine B assay; assay type: functional; conditions: HL-60, 48 h; for CC50: read-out: LC50 (the source's name)
MOLT-4 = experiment: Growth inhibition of human MOLT4 cells incubated for 48 hrs by sulforhodamine B assay; assay type: functional; conditions: MOLT-4, 48 h
RPMI-8226 = experiment: Growth inhibition of human RPMI8226 cells incubated for 48 hrs by sulforhodamine B assay; assay type: functional; conditions: RPMI-8226, 48 h
HOP-92 = experiment: Growth inhibition of human HOP92 cells incubated for 48 hrs by sulforhodamine B assay; assay type: functional; conditions: HOP-92, 48 h
NCI-H226 = experiment: Growth inhibition of human NCI-H226 cells incubated for 48 hrs by sulforhodamine B assay; assay type: functional; conditions: NCI-H226, 48 h; for CC50: read-out: LC50 (the source's name)
NCI-H460 = experiment: Growth inhibition of human NCI-H460 cells incubated for 48 hrs by sulforhodamine B assay; assay type: functional; conditions: NCI-H460, 48 h; for CC50: read-out: LC50 (the source's name)
NCI-H522 = experiment: Growth inhibition of human NCI-H522 cells incubated for 48 hrs by sulforhodamine B assay; assay type: functional; conditions: NCI-H522, 48 h; for CC50: read-out: LC50 (the source's name)
HCC 2998 = experiment: Growth inhibition of human HCC2998 cells incubated for 48 hrs by sulforhodamine B assay; assay type: functional; conditions: HCC 2998, 48 h; for CC50: read-out: LC50 (the source's name)
HCT-116 = experiment: Growth inhibition of human HCT116 cells incubated for 48 hrs by sulforhodamine B assay; assay type: functional; conditions: HCT-116, 48 h
HT-29 = experiment: Growth inhibition of human HT-29 cells incubated for 48 hrs by sulforhodamine B assay; assay type: functional; conditions: HT-29, 48 h; for CC50: read-out: LC50 (the source's name)
SW-620 [1] = experiment: Growth inhibition of human SW620 cells incubated for 48 hrs by sulforhodamine B assay; assay type: functional; conditions: SW-620, 48 h
SF-268 = experiment: Growth inhibition of human SF268 cells incubated for 48 hrs by sulforhodamine B assay; assay type: functional; conditions: SF-268, 48 h
U-251 = experiment: Growth inhibition of human U251 cells incubated for 48 hrs by sulforhodamine B assay; assay type: functional; conditions: U-251, 48 h; for CC50: read-out: LC50 (the source's name)
M14 = experiment: Growth inhibition of human M14 cells incubated for 48 hrs by sulforhodamine B assay; assay type: functional; conditions: M14, 48 h; for CC50: read-out: LC50 (the source's name)
OVCAR-5 = experiment: Growth inhibition of human OVCAR5 cells incubated for 48 hrs by sulforhodamine B assay; assay type: functional; conditions: OVCAR-5, 48 h; for CC50: read-out: LC50 (the source's name)
SK-OV-3 = experiment: Growth inhibition of human SKOV3 cells incubated for 48 hrs by sulforhodamine B assay; assay type: functional; conditions: SK-OV-3, 48 h; for CC50: read-out: LC50 (the source's name)
TK-10 = experiment: Growth inhibition of human TK10 cells incubated for 48 hrs by sulforhodamine B assay; assay type: functional; conditions: TK-10, 48 h; for CC50: read-out: LC50 (the source's name)
Hs-578T = experiment: Growth inhibition of human Hs 578T cells incubated for 48 hrs by sulforhodamine B assay; assay type: functional; conditions: for CC50: read-out: LC50 (the source's name)
[2] = target: T1, RAF proto-oncogene serine/threonine-protein kinase (Homo sapiens, UniProt P04049); experiment: Inhibition of human c-RAF at 10 uM using MEK1 as substrate in presence of [33P]ATP by Hotspot assay relative to control
T1 sequence (P04049 whole entry): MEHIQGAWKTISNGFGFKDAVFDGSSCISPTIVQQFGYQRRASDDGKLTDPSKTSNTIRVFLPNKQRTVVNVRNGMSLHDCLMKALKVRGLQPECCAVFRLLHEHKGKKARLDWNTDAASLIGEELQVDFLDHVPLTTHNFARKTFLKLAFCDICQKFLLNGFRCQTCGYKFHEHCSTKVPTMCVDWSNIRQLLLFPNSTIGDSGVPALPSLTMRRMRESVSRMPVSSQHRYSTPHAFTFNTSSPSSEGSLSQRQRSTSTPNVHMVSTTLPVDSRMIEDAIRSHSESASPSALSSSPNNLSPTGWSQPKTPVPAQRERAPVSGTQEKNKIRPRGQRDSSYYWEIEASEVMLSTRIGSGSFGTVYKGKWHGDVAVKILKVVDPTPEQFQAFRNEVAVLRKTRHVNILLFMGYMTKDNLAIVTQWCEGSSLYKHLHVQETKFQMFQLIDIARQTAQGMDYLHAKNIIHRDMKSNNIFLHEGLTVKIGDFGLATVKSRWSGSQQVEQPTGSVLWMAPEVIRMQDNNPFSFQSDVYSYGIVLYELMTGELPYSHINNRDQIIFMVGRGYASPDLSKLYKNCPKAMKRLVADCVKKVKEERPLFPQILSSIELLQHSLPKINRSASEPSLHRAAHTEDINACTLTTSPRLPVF

[3] = target: T1, RAF proto-oncogene serine/threonine-protein kinase; experiment: Inhibition of human c-RAF using MEK1 as substrate in presence of [33P]ATP by Hotspot assay
KM12 = experiment: Growth inhibition of human KM12 cells assessed as cell growth at 0.003 uM incubated for 48 hrs by sulforhodamine B assay relative to control; assay type: functional; conditions: KM12, 48 h, read-out: Activity
SW-620 [4] = experiment: Growth inhibition of human SW620 cells assessed as cell growth at 0.003 uM incubated for 48 hrs by sulforhodamine B assay relative to control; assay type: functional; conditions: SW-620, 48 h, read-out: Activity
MDA-MB-231 = experiment: Growth inhibition of human MDA-MB-231 cells assessed as cell growth at 3 uM incubated for 48 hrs by sulforhodamine B assay relative to control; assay type: functional; conditions: MDA-MB-231, 48 h, read-out: Activity
SK-MEL-5 = experiment: Growth inhibition of human SK-MEL-5 cells assessed as cell growth at 30 uM incubated for 48 hrs by sulforhodamine B assay relative to control; assay type: functional; conditions: SK-MEL-5, 48 h, read-out: Activity

COc1cc2cc(Oc3ccc(NC(=O)Nc4ccc(Cl)c(C(F)(F)F)c4)cc3)c(C)nc2cc1OC
GI50 (CCRF-CEM): 1.01 µM
TGI (CCRF-CEM): 3.09 µM
CC50 (CCRF-CEM): > 32.5 µM
GI50 (HL-60(TB)): 1.13 µM
TGI (HL-60(TB)): 3.12 µM
CC50 (HL-60(TB)): > 32.5 µM
GI50 (MOLT-4): 1.14 µM
LC50 (MOLT-4): > 32.5 µM
TGI (MOLT-4): 5.49 µM
GI50 (RPMI-8226): 0.636 to 0.64 µM
LC50 (lethal concentration, 50% cell kill) (RPMI-8226): > 32.5 µM
TGI (RPMI-8226): 1.65 µM
GI50 (HOP-92): 0.682 µM
LC50 (HOP-92): 10.3 µM
TGI (HOP-92): 2.05 µM
GI50 (NCI-H226): 1.27 µM
TGI (NCI-H226): 5.01 µM
CC50 (NCI-H226): > 32.5 µM
GI50 (NCI-H460): 1.07 µM
TGI (NCI-H460): 3.57 µM
CC50 (NCI-H460): 21.1 µM
GI50 (NCI-H522): 0.773 µM
TGI (NCI-H522): 2.65 µM
CC50 (NCI-H522): 12.2 µM
GI50 (HCC 2998): 1.77 µM
TGI (HCC 2998): 5.48 µM
CC50 (HCC 2998): 13.6 µM
GI50 (HCT-116): 0.994 µM
LC50 (50% lethal concentration) (HCT-116): 14 µM
TGI (HCT-116): 3.84 µM
GI50 (HT-29): 1.2 µM
TGI (HT-29): 3.98 µM
CC50 (HT-29): 14.2 µM
GI50 (SW-620 [1]): 1.25 µM
LC50 (SW-620 [1]): 14 µM
TGI (SW-620 [1]): 4.57 µM
GI50 (SF-268): 1.55 µM
LC50 (50% lethal concentration) (SF-268): 22.6 µM
TGI (SF-268): 6.34 µM
GI50 (U-251): 1.03 µM
TGI (U-251): 3.78 µM
CC50 (U-251): 12.6 µM
GI50 (M14): 1.25 µM
TGI (M14): 5.25 µM
CC50 (M14): 19.2 µM
GI50 (OVCAR-5): 1.93 µM
TGI (OVCAR-5): 6.22 µM
CC50 (OVCAR-5): 17.4 µM
GI50 (SK-OV-3): 1.35 µM
TGI (SK-OV-3): 5.79 µM
CC50 (SK-OV-3): 31.5 µM
GI50 (TK-10): 1.32 µM
TGI (TK-10): 6.19 µM
CC50 (TK-10): > 32.5 µM
GI50 (Hs-578T): 0.72 µM
TGI (Hs-578T): 2.31 µM
CC50 (Hs-578T): 27.4 µM
inhibition [2]: 99.7%
IC50 [3]: 0.1 µM
growth at 0.003 µM (KM12): 100%
growth at 0.003 µM (SW-620 [4]): 95%
growth at 3 µM (MDA-MB-231): -29%
growth at 30 µM (SK-MEL-5): -97%

COc1cc2cc(Oc3ccc(NC(=O)Nc4cccc(C(F)(F)F)c4)cc3)c(C)nc2cc1OC
GI50 (HL-60(TB)): 1.56 µM
TGI (HL-60(TB)): 3.91 µM
CC50 (HL-60(TB)): > 50 µM
GI50 (MOLT-4): 1.55 µM
LC50 (MOLT-4): > 50 µM
TGI (MOLT-4): 6.87 µM
GI50 (RPMI-8226): 1.05 µM
LC50 (lethal concentration, 50% cell kill) (RPMI-8226): > 50 µM
TGI (RPMI-8226): 2.96 µM
GI50 (HOP-92): 1.26 µM
LC50 (HOP-92): 21.2 µM
TGI (HOP-92): 3.96 µM
GI50 (NCI-H226): 1.8 µM
TGI (NCI-H226): 5.6 µM
CC50 (NCI-H226): 28.8 µM
GI50 (NCI-H460): 1.6 µM
TGI (NCI-H460): 6.02 µM
CC50 (NCI-H460): 34.9 µM
GI50 (NCI-H522): 1.32 µM
TGI (NCI-H522): 4.49 µM
CC50 (NCI-H522): 32.4 µM
GI50 (HCC 2998): 2.59 µM
TGI (HCC 2998): > 50 µM
CC50 (HCC 2998): > 50 µM
GI50 (HCT-116): 1.46 µM
LC50 (50% lethal concentration) (HCT-116): 20.4 µM
TGI (HCT-116): 5.84 µM
GI50 (HT-29): 2.05 µM
TGI (HT-29): 6.26 µM
CC50 (HT-29): 17.8 µM
GI50 (SW-620 [1]): 2.28 µM
LC50 (SW-620 [1]): > 50 µM
TGI (SW-620 [1]): 11.1 µM
GI50 (SF-268): 2.57 µM
LC50 (50% lethal concentration) (SF-268): > 50 µM
TGI (SF-268): 15.5 µM
GI50 (U-251): 1.56 µM
TGI (U-251): 5.61 µM
CC50 (U-251): 17 µM
GI50 (M14): 1.67 µM
TGI (M14): 7.67 µM
CC50 (M14): 35.6 µM
GI50 (OVCAR-5): 3.02 µM
TGI (OVCAR-5): 13 µM
CC50 (OVCAR-5): > 50 µM
GI50 (SK-OV-3): 2.06 µM
TGI (SK-OV-3): 10.6 µM
CC50 (SK-OV-3): > 50 µM
GI50 (TK-10): 2.26 µM
TGI (TK-10): 9.93 µM
CC50 (TK-10): > 50 µM
GI50 (Hs-578T): 1.44 µM
TGI (Hs-578T): 4.22 µM
CC50 (Hs-578T): > 50 µM
inhibition [2]: 99.2%
IC50 [3]: 0.15 µM

Cc1nc2cc(O)c(O)cc2cc1Oc1ccc(NC(=O)Nc2ccc(Cl)c(Cl)c2)cc1
GI50 (CCRF-CEM): 6.19 µM
TGI (CCRF-CEM): 21.8 µM
CC50 (CCRF-CEM): > 32.5 µM
GI50 (HL-60(TB)): 9.02 µM
TGI (HL-60(TB)): 22.4 µM
CC50 (HL-60(TB)): > 32.5 µM
GI50 (MOLT-4): 8.87 µM
LC50 (MOLT-4): > 32.5 µM
TGI (MOLT-4): > 32.5 µM
GI50 (RPMI-8226): 7.62 µM
LC50 (lethal concentration, 50% cell kill) (RPMI-8226): > 32.5 µM
TGI (RPMI-8226): 20.7 µM
GI50 (HOP-92): 2.85 µM
LC50 (HOP-92): > 32.5 µM
TGI (HOP-92): 16.7 µM
GI50 (NCI-H226): 11.8 µM
TGI (NCI-H226): > 32.5 µM
CC50 (NCI-H226): > 32.5 µM
GI50 (NCI-H460): 6.95 µM
TGI (NCI-H460): 15.8 µM
CC50 (NCI-H460): > 32.5 µM
GI50 (NCI-H522): 4.43 µM
TGI (NCI-H522): 12.5 µM
CC50 (NCI-H522): > 32.5 µM
GI50 (HCC 2998): 6.7 µM
TGI (HCC 2998): 14.6 µM
CC50 (HCC 2998): 32 µM
GI50 (HCT-116): 2.24 µM
LC50 (50% lethal concentration) (HCT-116): > 32.5 µM
TGI (HCT-116): 13.6 µM
GI50 (HT-29): 11.9 µM
TGI (HT-29): > 32.5 µM
CC50 (HT-29): > 32.5 µM
GI50 (SW-620 [1]): 4.9 µM
LC50 (SW-620 [1]): > 32.5 µM
TGI (SW-620 [1]): > 32.5 µM
GI50 (SF-268): 8.45 µM
LC50 (50% lethal concentration) (SF-268): > 32.5 µM
TGI (SF-268): > 32.5 µM
GI50 (U-251): 6.58 µM
TGI (U-251): > 32.5 µM
CC50 (U-251): > 32.5 µM
GI50 (M14): 5.97 µM
TGI (M14): 13.8 µM
CC50 (M14): 32 µM
GI50 (OVCAR-5): 11.6 µM
TGI (OVCAR-5): 29.3 µM
CC50 (OVCAR-5): > 32.5 µM
GI50 (SK-OV-3): 11.7 µM
TGI (SK-OV-3): > 32.5 µM
CC50 (SK-OV-3): > 32.5 µM
GI50 (TK-10): 14.2 µM
TGI (TK-10): > 32.5 µM
CC50 (TK-10): > 32.5 µM
GI50 (Hs-578T): 12.8 µM
TGI (Hs-578T): > 32.5 µM
CC50 (Hs-578T): > 32.5 µM
growth at 0.003 µM (KM12): 103%
growth at 0.003 µM (SW-620 [4]): 100%
growth at 3 µM (MDA-MB-231): 41%
growth at 30 µM (SK-MEL-5): -47%
